Source: publication PMC12305662, “Fragment-Based Development of Small Molecule Inhibitors Targeting Mycobacterium tuberculosis Cholesterol Metabolism” (Journal of Medicinal Chemistry, 2025)

Columns and labels:
CYP124 = CYP124 (Mycobacterium tuberculosis, UniProt P9WPP3); settings: fragment 1 mM, P450 4-6 µM; relative to DMSO (419 nm)
CYP126 = CYP126 (Mycobacterium tuberculosis, UniProt P9WPN9); settings: fragment 1 mM, P450 4-6 µM; relative to DMSO (418 nm)
CYP142 = CYP142 (Mycobacterium tuberculosis, UniProt P9WPL5); settings: fragment 1 mM, P450 4-6 µM; relative to DMSO (418.5 nm)
CYP143 = CYP143 (Mycobacterium tuberculosis, UniProt P9WPL3); settings: fragment 1 mM, P450 4-6 µM; relative to DMSO (416 nm)
CYP121 = CYP121 (Mycobacterium tuberculosis, UniProt P9WPP7); settings: fragment 1 mM, P450 4-6 µM; relative to DMSO (417 nm)
CYP144 = CYP144 (Mycobacterium tuberculosis, UniProt P9WPL1); settings: fragment 1 mM, P450 4-6 µM; relative to DMSO (421 nm)
CYP125 = CYP125 (Mycobacterium tuberculosis, UniProt P9WPP1); format: binding; settings: fragment 1 mM, P450 4-6 µM; Soret shift relative to DMSO (393 nm)
Sequence of CYP125 (P9WPP1 whole entry, the tested form may be a part): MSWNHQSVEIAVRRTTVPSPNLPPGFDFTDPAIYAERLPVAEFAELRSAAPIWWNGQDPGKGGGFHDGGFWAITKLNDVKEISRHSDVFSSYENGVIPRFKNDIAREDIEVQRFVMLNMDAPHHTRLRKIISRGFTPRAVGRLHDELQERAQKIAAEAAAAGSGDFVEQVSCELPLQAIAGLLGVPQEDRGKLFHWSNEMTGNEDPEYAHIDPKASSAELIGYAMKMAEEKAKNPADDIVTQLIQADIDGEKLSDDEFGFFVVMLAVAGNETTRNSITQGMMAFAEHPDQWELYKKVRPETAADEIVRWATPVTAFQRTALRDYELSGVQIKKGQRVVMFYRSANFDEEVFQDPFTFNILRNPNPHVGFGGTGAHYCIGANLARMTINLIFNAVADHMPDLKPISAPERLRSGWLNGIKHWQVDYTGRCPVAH

Sequence of CYP121 (P9WPP7 whole entry, the tested form may be a part): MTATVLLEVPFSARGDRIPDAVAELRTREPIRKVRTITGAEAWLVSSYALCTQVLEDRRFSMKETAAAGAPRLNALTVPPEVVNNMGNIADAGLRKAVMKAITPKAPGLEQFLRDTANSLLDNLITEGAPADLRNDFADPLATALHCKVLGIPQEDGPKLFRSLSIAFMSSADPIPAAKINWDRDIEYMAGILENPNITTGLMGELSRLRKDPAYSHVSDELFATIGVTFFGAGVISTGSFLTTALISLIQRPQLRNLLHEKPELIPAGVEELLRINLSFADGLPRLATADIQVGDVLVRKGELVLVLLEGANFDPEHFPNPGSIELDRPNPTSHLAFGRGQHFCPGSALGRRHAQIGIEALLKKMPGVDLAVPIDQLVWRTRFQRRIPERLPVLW
Sequence of CYP143 (P9WPL3 whole entry, the tested form may be a part): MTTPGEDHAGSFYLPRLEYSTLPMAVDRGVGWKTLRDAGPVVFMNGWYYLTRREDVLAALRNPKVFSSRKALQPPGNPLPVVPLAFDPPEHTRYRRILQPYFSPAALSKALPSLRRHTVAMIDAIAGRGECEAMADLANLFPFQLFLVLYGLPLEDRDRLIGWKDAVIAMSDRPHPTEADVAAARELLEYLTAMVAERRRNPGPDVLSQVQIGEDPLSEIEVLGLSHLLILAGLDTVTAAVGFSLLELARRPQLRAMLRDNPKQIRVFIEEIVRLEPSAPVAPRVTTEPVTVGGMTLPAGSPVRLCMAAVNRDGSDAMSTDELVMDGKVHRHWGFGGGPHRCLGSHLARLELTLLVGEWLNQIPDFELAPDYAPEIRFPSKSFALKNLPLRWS
Sequence of CYP144 (P9WPL1 whole entry, the tested form may be a part): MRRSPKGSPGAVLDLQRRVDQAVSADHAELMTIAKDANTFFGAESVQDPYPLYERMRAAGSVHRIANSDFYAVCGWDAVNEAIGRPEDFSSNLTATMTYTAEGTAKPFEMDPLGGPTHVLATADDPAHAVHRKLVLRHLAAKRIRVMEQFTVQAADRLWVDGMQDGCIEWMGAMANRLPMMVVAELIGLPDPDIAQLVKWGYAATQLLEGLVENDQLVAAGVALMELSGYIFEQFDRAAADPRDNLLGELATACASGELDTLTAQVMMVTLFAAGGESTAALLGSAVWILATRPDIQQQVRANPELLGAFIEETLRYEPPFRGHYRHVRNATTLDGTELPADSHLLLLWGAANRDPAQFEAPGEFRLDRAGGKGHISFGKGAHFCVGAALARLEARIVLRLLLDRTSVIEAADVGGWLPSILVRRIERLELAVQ
Sequence of CYP142 (P9WPL5 whole entry, the tested form may be a part): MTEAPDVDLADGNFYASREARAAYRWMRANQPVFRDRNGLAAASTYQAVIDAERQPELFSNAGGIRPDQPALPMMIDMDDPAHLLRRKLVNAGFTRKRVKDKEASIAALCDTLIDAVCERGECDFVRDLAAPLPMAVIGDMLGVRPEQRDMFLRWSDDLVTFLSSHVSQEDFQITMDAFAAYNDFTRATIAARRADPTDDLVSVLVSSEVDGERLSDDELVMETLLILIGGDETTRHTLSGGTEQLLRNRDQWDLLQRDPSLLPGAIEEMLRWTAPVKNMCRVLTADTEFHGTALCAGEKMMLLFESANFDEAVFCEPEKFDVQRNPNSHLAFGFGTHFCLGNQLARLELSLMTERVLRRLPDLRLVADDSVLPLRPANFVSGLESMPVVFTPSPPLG
Sequence of CYP124 (P9WPP3 whole entry, the tested form may be a part): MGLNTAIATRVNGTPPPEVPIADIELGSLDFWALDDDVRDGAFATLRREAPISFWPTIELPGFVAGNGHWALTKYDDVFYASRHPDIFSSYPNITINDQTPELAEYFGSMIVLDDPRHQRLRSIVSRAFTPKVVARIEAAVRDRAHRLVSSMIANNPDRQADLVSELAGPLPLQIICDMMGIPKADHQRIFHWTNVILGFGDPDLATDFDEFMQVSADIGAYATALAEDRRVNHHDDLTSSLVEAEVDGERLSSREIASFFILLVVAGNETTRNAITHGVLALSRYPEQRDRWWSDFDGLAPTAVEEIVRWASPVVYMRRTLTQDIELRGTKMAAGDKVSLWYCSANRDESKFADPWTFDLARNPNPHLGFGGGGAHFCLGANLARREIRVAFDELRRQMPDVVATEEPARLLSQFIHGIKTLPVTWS
Sequence of CYP126 (P9WPN9 whole entry, the tested form may be a part): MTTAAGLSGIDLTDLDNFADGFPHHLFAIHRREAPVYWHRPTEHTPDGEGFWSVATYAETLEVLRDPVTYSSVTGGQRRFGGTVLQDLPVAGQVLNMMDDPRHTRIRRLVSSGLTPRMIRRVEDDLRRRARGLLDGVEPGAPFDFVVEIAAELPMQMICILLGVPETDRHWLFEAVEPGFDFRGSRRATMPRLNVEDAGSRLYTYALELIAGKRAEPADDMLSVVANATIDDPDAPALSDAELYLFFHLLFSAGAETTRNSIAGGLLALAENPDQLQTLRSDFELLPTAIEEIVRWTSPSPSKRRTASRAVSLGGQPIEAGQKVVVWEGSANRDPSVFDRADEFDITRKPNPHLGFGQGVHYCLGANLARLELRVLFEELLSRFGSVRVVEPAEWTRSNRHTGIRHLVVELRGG

Structure (SMILES)	Δλmax (nm) CYP124, fragment screen (CYP124)	Δλmax (nm) CYP126, fragment screen (CYP126)	Δλmax (nm) CYP142, fragment screen (CYP142)	Δλmax (nm) CYP143, fragment screen (CYP143)	Δλmax (nm) CYP121, fragment screen (CYP121)	Δλmax (nm) CYP144, fragment screen (CYP144)	Δλmax (nm) CYP125, fragment screen (CYP125)
N#Cc1ccccn1 [compound 40]	0 nm	0 nm	0 nm	0.5 nm	0 nm	0 nm	0 nm
N#Cc1ccncc1 [compound 41]	0 nm	0 nm	0 nm	-0.5 nm	0 nm	0 nm	0 nm
Oc1cccnc1O [compound 42]	-1 nm	0 nm	0 nm	0.5 nm	-1 nm	0 nm	0 nm
Nc1ccccn1 [compound 43]	0 nm	0 nm	0 nm	1 nm	0 nm	0 nm	0 nm
Oc1ccccn1 [compound 44]	0 nm	0 nm	0 nm	-0.5 nm	0 nm	0 nm	0 nm
CC(C)c1cc(C(=O)O)[nH]n1 [compound 46]	0 nm	0 nm	0 nm	-0.5 nm	0 nm	0 nm	0 nm
Nc1ccncc1 [compound 47]	0 nm	0 nm	1.5 nm	0 nm	0 nm	0 nm	0 nm
Nc1ccc(Oc2ccccc2)nc1 [compound 48]	-1 nm	2 nm	1.5 nm	0.5 nm	1 nm	0 nm	0 nm
Nc1ccc(-n2cccn2)cc1 [compound 49]	0 nm	2 nm	0 nm	1 nm	0 nm	0 nm	0 nm
COc1ncccc1N [compound 50]	0 nm	0 nm	0 nm	2.5 nm	0 nm	0 nm	0 nm
O=C(O)c1ccnn1-c1ccccc1 [compound 51]	0 nm	0 nm	0 nm	0.5 nm	-1 nm	0 nm	0 nm
CNCc1ccc(-c2ccncc2)cc1 [compound 52]	2 nm	0 nm	1.5 nm	4 nm	-1 nm	0 nm	28.5 nm
O=C(O)c1ccc(-c2cccnc2)cc1 [compound 53]	0 nm	0 nm	0 nm	1 nm	0 nm	0 nm	0 nm
O=C(O)c1ccc(-n2cccn2)cc1 [compound 54]	0 nm	-1 nm	0 nm	-0.5 nm	0 nm	0 nm	0 nm
Clc1nccc2ccccc12 [compound 56]	0 nm	0 nm	0 nm	-0.5 nm	-2 nm	0 nm	0 nm
Clc1ncccc1Br [compound 57]	0 nm	0 nm	0 nm	0.5 nm	-1 nm	0 nm	0 nm
O=c1ccc(Br)c[nH]1 [compound 58]	0 nm	-1 nm	0 nm	0.5 nm	0 nm	0 nm	0 nm
O=C(O)c1cncc(F)c1 [compound 60]	0 nm	0 nm	0 nm	1 nm	0 nm	0 nm	0 nm
c1ccc(N2CCOCC2)nc1 [compound 63]	0 nm	0 nm	0 nm	1 nm	0 nm	0 nm	0 nm
O=C1CCN(c2ccccc2)N1 [compound 64]	-1 nm	0 nm	1.5 nm	1 nm	0 nm	0 nm	0 nm
CCc1nc(C)c[nH]1 [compound 67]	0 nm	0 nm	0 nm	0 nm	-1 nm	0 nm	0 nm
c1ccc(-c2c[nH]cn2)cc1 [compound 68]	4 nm	1 nm	3 nm	2 nm	0 nm	0 nm	0 nm
